Test results reported in ChEMBL document CHEMBL3885861, “Open TG-GATES”.

Species on record: Rattus norvegicus
Experiment: Open TG-GATES - Regimen: Single
Type: toxicity, organism-based, Sprague-Dawley
Design: regimen Single, gender Male, age 6 weeks
Settings: in vivo, iv, 6 mg/kg, route intravenous injection, dose level Low; for APTT / Bas / Eos / Fbg / Hb / Ht / Lym / MCH / MCHC / MCV / Mono / Neu / PT / Plat / RBC / Ret / WBC: tissue Blood; for KIDNEY_L / KIDNEY_R / KIDNEY_TOTAL: tissue Kidney; for LIVER: tissue Liver; for A/G / ALP / ALT / AST / BUN / CRE / Ca / Cl / DBIL / GLC / IP / K / LDH / Na / PL / RALB / TBIL / TC / TG / TP / gamma-GTP: tissue Plasma

NCCBr [BROMOETHANAMINE]
TERMINAL_BW (3 h): 221.9 g | APTT (3 h): 22.5 s | Bas (3 h): 0% | Eos (3 h): 0.4% | Fbg (3 h): 300 mg/dL | Hb (3 h): 13.3 g/dL | Ht (3 h): 39.3% | Lym (3 h): 77.8% | MCH (3 h): 21.5 pg | MCHC (3 h): 33.8% | MCV (3 h): 63.5 fL | Mono (3 h): 3% | Neu (3 h): 18% | PT (3 h): 16 s | Plat (3 h): 125.4 x10_4/uL | RBC (3 h): 618.4 x10_4/ul | Ret (3 h): 6.4% | WBC (3 h): 83.3 x10_2/uL | KIDNEY_L (3 h): 1 g | KIDNEY_R (3 h): 1 g | KIDNEY_TOTAL (3 h): 2 g | LIVER (3 h): 10.5 g | A/G (3 h): 1.2 | ALP (3 h): 1604 IU/L | ALT (3 h): 44.6 IU/L | AST (3 h): 78 IU/L | BUN (3 h): 14.4 mg/dL | CRE (3 h): 0.2 mg/dL | Ca (3 h): 10.8 mg/dL | Cl (3 h): 106.2 meq/L | DBIL (3 h): 0 mg/dL | GLC (3 h): 167.8 mg/dL | IP (3 h): 7.9 mg/dL | K (3 h): 4.4 meq/L | LDH (3 h): 187.8 IU/L | Na (3 h): 142 meq/L | PL (3 h): 140.8 mg/dL | RALB (3 h): 3 g/dL | TBIL (3 h): 0.02 mg/dL | TC (3 h): 76.8 mg/dL | TG (3 h): 101 mg/dL | TP (3 h): 5.4 g/dL | gamma-GTP (3 h): 2 IU/L | TERMINAL_BW (6 h): 218.1 g | APTT (6 h): 23.7 s | Bas (6 h): 0% | Eos (6 h): 0.6% | Fbg (6 h): 311 mg/dL | Hb (6 h): 13.3 g/dL | Ht (6 h): 39.1% | Lym (6 h): 83% | MCH (6 h): 21.1 pg | MCHC (6 h): 34.1% | MCV (6 h): 61.9 fL | Mono (6 h): 2.6% | Neu (6 h): 12.6% | PT (6 h): 16.2 s | Plat (6 h): 118.5 x10_4/uL | RBC (6 h): 632.6 x10_4/ul | Ret (6 h): 6.5% | WBC (6 h): 95.2 x10_2/uL | KIDNEY_L (6 h): 1 g | KIDNEY_R (6 h): 1 g | KIDNEY_TOTAL (6 h): 2 g | LIVER (6 h): 9.3 g | A/G (6 h): 1.1 | ALP (6 h): 1385.2 IU/L | ALT (6 h): 39 IU/L | AST (6 h): 71.4 IU/L | BUN (6 h): 10.6 mg/dL | CRE (6 h): 0.1 mg/dL | Ca (6 h): 10.5 mg/dL | Cl (6 h): 105.8 meq/L | DBIL (6 h): 0 mg/dL | GLC (6 h): 178.8 mg/dL | IP (6 h): 8.9 mg/dL | K (6 h): 4.4 meq/L | LDH (6 h): 147 IU/L | Na (6 h): 140.8 meq/L | PL (6 h): 128.8 mg/dL | RALB (6 h): 2.8 g/dL | TBIL (6 h): 0.02 mg/dL | TC (6 h): 74.4 mg/dL | TG (6 h): 49.2 mg/dL | TP (6 h): 5.4 g/dL | gamma-GTP (6 h): 2 IU/L | TERMINAL_BW (9 h): 207.3 g | APTT (9 h): 22.3 s | Bas (9 h): 0% | Eos (9 h): 0.6% | Fbg (9 h): 297 mg/dL | Hb (9 h): 13.4 g/dL | Ht (9 h): 38.5% | Lym (9 h): 80.4% | MCH (9 h): 21.4 pg | MCHC (9 h): 34.7% | MCV (9 h): 61.8 fL | Mono (9 h): 2.2% | Neu (9 h): 16.2% | PT (9 h): 16.3 s | Plat (9 h): 110.5 x10_4/uL | RBC (9 h): 623.6 x10_4/ul | Ret (9 h): 5.4% | WBC (9 h): 73.1 x10_2/uL | KIDNEY_L (9 h): 0.9 g | KIDNEY_R (9 h): 0.9 g | KIDNEY_TOTAL (9 h): 1.8 g | LIVER (9 h): 8 g | A/G (9 h): 1.2 | ALP (9 h): 1508.8 IU/L | ALT (9 h): 34 IU/L | AST (9 h): 70 IU/L | BUN (9 h): 12.8 mg/dL | CRE (9 h): 0.2 mg/dL | Ca (9 h): 10.5 mg/dL | Cl (9 h): 106.2 meq/L | DBIL (9 h): 0 mg/dL | GLC (9 h): 174 mg/dL | IP (9 h): 9.1 mg/dL | K (9 h): 4.3 meq/L | LDH (9 h): 129 IU/L | Na (9 h): 141.2 meq/L | PL (9 h): 121.8 mg/dL | RALB (9 h): 2.9 g/dL | TBIL (9 h): 0.018 mg/dL | TC (9 h): 71.6 mg/dL | TG (9 h): 48.4 mg/dL | TP (9 h): 5.4 g/dL | gamma-GTP (9 h): 1.4 IU/L | TERMINAL_BW (24 h): 221.5 g | APTT (24 h): 23.6 s | Bas (24 h): 0% | Eos (24 h): 0.8% | Fbg (24 h): 322.8 mg/dL | Hb (24 h): 14 g/dL | Ht (24 h): 40.5% | Lym (24 h): 79.8% | MCH (24 h): 21 pg | MCHC (24 h): 34.6% | MCV (24 h): 60.7 fL | Mono (24 h): 2.8% | Neu (24 h): 15.6% | PT (24 h): 16.4 s | Plat (24 h): 121.7 x10_4/uL | RBC (24 h): 666.6 x10_4/ul | Ret (24 h): 5.5% | WBC (24 h): 96.1 x10_2/uL | KIDNEY_L (24 h): 1 g | KIDNEY_R (24 h): 1.1 g | KIDNEY_TOTAL (24 h): 2.1 g | LIVER (24 h): 10.8 g | A/G (24 h): 1.1 | ALP (24 h): 1490 IU/L | ALT (24 h): 44.6 IU/L | AST (24 h): 67.6 IU/L | BUN (24 h): 18 mg/dL | CRE (24 h): 0.2 mg/dL | Ca (24 h): 10.7 mg/dL | Cl (24 h): 105.8 meq/L | DBIL (24 h): 0 mg/dL | GLC (24 h): 183.6 mg/dL | IP (24 h): 6.8 mg/dL | K (24 h): 4.6 meq/L | LDH (24 h): 187.8 IU/L | Na (24 h): 141.6 meq/L | PL (24 h): 162.8 mg/dL | RALB (24 h): 2.9 g/dL | TBIL (24 h): 0.01 mg/dL | TC (24 h): 90.8 mg/dL | TG (24 h): 99.4 mg/dL | TP (24 h): 5.6 g/dL | gamma-GTP (24 h): 1.8 IU/L
